Laboratory results published in US20210038569A1, “COMPOSITIONS AND METHODS FOR TREATING PIGMENTATION DISORDERS” (Timber Pharmaceuticals, Inc., priority 2018, published 2021).
Entries after “also recorded” stand apart in the source; their conditions may differ. Like-named read-outs stand apart in the source and are kept apart here.

Tests used:
[1] = tested on: normal human dermal fibroblasts (NHDFs) stimulated with TGF-β1; test: Cell viability in TGF-β1 induced normal human dermal fibroblasts; type: cell-based; details: for Cell Viability: 48 hours, 50 ng/mL TGF-β1
Method: For these assays cells were grown for 48 hours in the presence of vehicle control, sitaxentan, and bosentan. The appropriate assay reagents and measuring techniques were used as indicated herein. Normal human dermal fibroblast cells (LLCT FC0024 lot 03869_ fibroblast) were seeded to confluence in 96 well plates in 10% fetal bovine serum (FBS) Dulbecco's modified eagle medium (DMEM). The cells were washed to remove the FBS, and serum free media was added overnight (O/N). The cells were then stimulated with 50 ng/mL TGF-β1 and treated. For the cell viability assay: 20 μl of the Viability Reagent (Promega, Cat #G6320) containing both GF-AFC Substrate and bis-AAF-R110 Substrate, for measuring live cell viability, was added and briefly mixed. The plates for the different assays were then incubated for 30 minutes at 37° C. […] Data were analyzed using GraphPad Prism 7. Six to nine replicates were run for each sample.

[2] = tested on: normal human dermal fibroblasts (NHDFs) stimulated with TGF-β1; test: Cell cytotoxicity in TGF-β1 induced normal human dermal fibroblasts; type: cell-based; details: for Cell Cytotoxicity: 48 hours, 50 ng/mL TGF-β1; for Cytotoxicity, result in words: compared with vehicle control and between compounds
Method: The effect of sitaxentan on cell viability, cell cytotoxicity, and apoptosis was measured in an assay using normal human dermal fibroblasts induced with TGF-β1 into a profibrotic phenotype. For these assays cells were grown for 48 hours in the presence of vehicle control, sitaxentan, and bosentan. The appropriate assay reagents and measuring techniques were used as indicated herein.
normal human dermal fibroblast cells (LLCT FC0024 lot 03869_ fibroblast) were seeded to confluence in 96 well plates in 10% fetal bovine serum (FBS) Dulbecco's modified eagle medium (DMEM).
The cells were washed to remove the FBS, and serum free media was added overnight (O/N).
The cells were then stimulated with 50 ng/mL TGF-β1 and treated.
For the cell cytotoxicity assay:
20 μl of the Cytotoxicity Reagent (Promega, Cat #G6320) containing both GF-AFC Substrate and bis-AAF-R110 Substrate, for measuring dead cells (cytotoxicity), was added and briefly mixed.
The plates for the different assays were then incubated for 30 minutes at 37° C.
Fluorescence was measured at: 400Ex/505Em (Viability) and 485Ex/520Em (Cytotoxicity)
Data were analyzed using GraphPad Prism 7.
Six to nine replicates were run for each sample.

[3] = tested on: normal human dermal fibroblasts (NHDFs) stimulated with TGF-β1; test: Apoptosis (Caspase-Glo 3/7) in TGF-β1 induced normal human dermal fibroblasts; type: cell-based; details: for Apoptosis: 48 hours, 50 ng/mL TGF-β1; for Apoptosis, result in words: after treatment, compared with vehicle control and between compounds
Method: For these assays cells were grown for 48 hours in the presence of vehicle control, sitaxentan, and bosentan. The appropriate assay reagents and measuring techniques were used as indicated herein. Normal human dermal fibroblast cells (LLCT FC0024 lot 03869_ fibroblast) were seeded to confluence in 96 well plates in 10% fetal bovine serum (FBS) Dulbecco's modified eagle medium (DMEM). The cells were washed to remove the FBS, and serum free media was added overnight (O/N). The cells were then stimulated with 50 ng/mL TGF-β1 and treated. For the apoptosis assay: 100 μl of Caspase-Glo® 3/7 Reagent (Promega, Cat #G6320), for the apoptosis assay, was added and briefly mixed. The plate was incubated for 30 minutes at room temperature prior to measurement of luminescence Data were analyzed using GraphPad Prism 7. Six to nine replicates were run for each sample.

[4] = tested on: primary normal human adult melanocytes; test: Melanin content in melanocytes; type: cell-based; details: for Melanin Content (absorbance at 400 nm): 24 hours
Method: (§1) The effect of sitaxentan on human melanocytes was measured. For these assays cells were grown for 24 hours in the presence of vehicle control, sitaxentan, and bosentan. The appropriate assay reagents and measuring techniques were used as indicated herein. Melanocytes, from either Caucasian or African American donors, were grown to confluence in 6-well tissue culture plates using LLCT DermaLife Ma complete medium and treated with compounds for 24 hours. Treated cells were removed from the plate with 0.25% trypsin for 10 minutes and then centrifuged at 0.4 g for 5 minutes. The resulting cell pellet was resuspended in 50 μL of 1M NaOH/10% DMSO solution. The resultant suspension was vortexed for 30 seconds. The suspension was then baked in a drying oven at 80° C. for 1 hour. The suspension was vortexed again for 30 seconds and then transferred to a black half-area 96-well plate and read in a UV/VIS spectrophotometer at 400 nm. Data were analyzed using GraphPad Prism 7.

[5] = tested on: primary normal human adult melanocytes; test: Melanin content in melanocytes; type: cell-based; details: for Melanin Content (absorbance at 400 nm): 24 hours; remark: listed apart in the source
Method: as §1

[6] = in vivo; cited from earlier work
[7] = cited from earlier work
[8] = target: T1, endothelin-A (ET-A) receptor (Homo sapiens, UniProt P25101); details: cited from earlier work
T1 sequence (P25101 21-427): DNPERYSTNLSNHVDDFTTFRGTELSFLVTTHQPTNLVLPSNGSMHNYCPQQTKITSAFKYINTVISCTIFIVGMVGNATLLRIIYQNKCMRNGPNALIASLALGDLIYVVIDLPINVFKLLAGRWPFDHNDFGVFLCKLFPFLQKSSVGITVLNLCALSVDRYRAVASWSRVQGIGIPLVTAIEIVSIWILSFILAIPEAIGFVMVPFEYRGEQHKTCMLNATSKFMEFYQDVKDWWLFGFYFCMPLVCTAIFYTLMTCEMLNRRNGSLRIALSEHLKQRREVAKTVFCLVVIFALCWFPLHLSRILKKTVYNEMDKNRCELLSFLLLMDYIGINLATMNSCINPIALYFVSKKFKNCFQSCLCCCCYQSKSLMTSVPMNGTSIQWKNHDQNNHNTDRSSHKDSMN

Row | Structure (SMILES) | Cell Viability ([1]; 1 μM) [RFUs] | Cell Viability ([1]; 3 μM) [RFUs] | Cell Viability ([1]; 10 μM) [RFUs] | Cell Viability ([1]; 30 μM) [RFUs] | Cell Viability ([1]; 100 μM) [RFUs] | Cell Cytotoxicity ([2]; 1 μM) [RFUs] | Cell Cytotoxicity ([2]; 3 μM) [RFUs] | Cell Cytotoxicity ([2]; 10 μM) [RFUs] | Cell Cytotoxicity ([2]; 30 μM) [RFUs] | Cell Cytotoxicity ([2]; 100 μM) [RFUs] | Cytotoxicity, result in words [2] | Apoptosis ([3]; 1 μM) [RLUs] | Apoptosis ([3]; 3 μM) [RLUs] | Apoptosis ([3]; 10 μM) [RLUs] | Apoptosis ([3]; 30 μM) [RLUs] | Apoptosis ([3]; 100 μM) [RLUs] | Apoptosis, result in words [3] | Effect on melanin content, result in words [4] | Melanin Content (absorbance at 400 nm) ([4]; 30 μM) | Melanin Content (absorbance at 400 nm) ([4]; 100 μM) | other results
1 | COc1ccccc1Oc1c(NS(=O)(=O)c2ccc(C(C)(C)C)cc2)nc(-c2ncccn2)nc1OCCO [bosentan] | 5406.8 | 5548.5 | 5521.2 | 5537.0 | 5584.3 | 4256.9 | 3954.2 | 3764.0 | 4607.5 | 3929.0 | neither bosentan nor sitaxentan was significantly more cytotoxic than the vehicle control; also recorded: significantly more cytotoxic than sitaxentan | 39366.8 | 38639.8 | 38586.7 | 42825.2 | 43330.7 | elevated | no effect on melanin content | 0.633 | 0.703 | Effect on melanin content, result in words [5]: no effect on melanin content; Melanin Content (absorbance at 400 nm) ([5]; 30 μM): 0.511; Melanin Content (absorbance at 400 nm) ([5]; 100 μM): 0.497
2 | Cc1cc2c(cc1CC(=O)c1sccc1S(=O)(=O)Nc1onc(C)c1Cl)OCO2 [sitaxentan, N-(4-Chloro-3-methyl-5-isoxazolyl)-2-[(2-methyl-4,5-methylenedioxyphenyl)-acetyl]thiophene-3-sulfonamide] | 5678.3 | 5639.0 | 5600.5 | 5250.8 | 5171.0 | 4643.9 | 5058.3 | 4741.7 | 3837.5 | 2911.3 | neither bosentan nor sitaxentan was significantly more cytotoxic than the vehicle control | 37593.4 | 39162.8 | 39512.0 | 46053.5 | 51050.2 | elevated; also recorded: significantly more potent effect than bosentan | superior to bosentan in reducing the melanin content; also recorded: significantly more effective than a vehicle control at reducing melanin content; also recorded: significantly decreased melanin content | 0.579 | 0.544 | Toxicity (cell viability), result in words ([1]; concentrations up to 100 μM): no significant toxicity was observed; Cytotoxicity, result in words ([2]; listed as sitaxsentan): significantly less cytotoxic to human skin cells than bosentan; Effect on melanin content, result in words [5]: superior to bosentan in reducing the melanin content; also recorded: significantly more effective than a vehicle control at reducing melanin content; also recorded: significantly decreased melanin content; Melanin Content (absorbance at 400 nm) ([5]; 30 μM): 0.471; Melanin Content (absorbance at 400 nm) ([5]; 100 μM): 0.46; Metabolism [6]: hepatic (CYP2C9- and CYP3A4-mediated); Protein binding [7]: > 99%; Selectivity for ET-A compared to ET-B (factor) [8]: 6000
